According to ChEMBL document CHEMBL4732090, “Preparation of new 1,3-dibenzyl tetrahydropyridinylidene ammonium salts and their antimicrobial and anticellular activities” (Eur J Med Chem, 2021):

Key:
[1] = system: Trypanosoma brucei rhodesiense; assay: Trypanocidal activity against Trypanosoma brucei rhodesiense STIB900 incubated for 70 hrs by Alamar blue assay; type: functional, organism-based; settings: STIB900, 70 h
Escherichia coli = assay: Antibacterial activity against Escherichia coli ATCC 25922 assessed as diameter of inhibition zone at 10 mg/ml by disk diffusion assay; type: functional; settings: read-out: DIZ
Pseudomonas aeruginosa = assay: Antibacterial activity against Pseudomonas aeruginosa ATCC 27853 assessed as diameter of inhibition zone at 10 mg/ml by disk diffusion assay; type: functional; settings: read-out: DIZ
Staphylococcus aureus = assay: Antibacterial activity against Staphylococcus aureus ATCC 29213 assessed as diameter of inhibition zone at 10 mg/ml by disk diffusion assay; type: functional; settings: read-out: DIZ
[2] = system: Staphylococcus epidermidis; assay: Antibacterial activity against Staphylococcus epidermis ATCC 12228 assessed as diameter of inhibition zone at 10 mg/ml by disk diffusion assay; type: functional; settings: read-out: DIZ
[3] = Selectivity index, ratio of IC50 for rat L6 cells to IC50 for Trypanosoma brucei rhodesiense STIB900; type: toxicity; settings: read-out: Ratio IC50
Plasmodium falciparum [4] = assay: Antiplasmodial activity against Plasmodium falciparum NF54 erythrocytic stages assessed as reduction in [3H]hypoxanthine incorporation measured after 48 hrs by liquid scintillation counting method; type: functional, organism-based
L6 = assay: Cytotoxicity against rat L6 cells after 70 hrs by Alamar blue assay; type: cell-based; settings: L6, 70 h
Candida albicans = assay: Antifungal activity against Candida albicans ATCC 90028 assessed as diameter of inhibition zone at 10 mg/ml by disk diffusion assay; type: functional; settings: read-out: DIZ
[5] = Selectivity index, ratio of IC50 for rat L6 cells to IC50 for Plasmodium falciparum NF54; type: toxicity; settings: read-out: Ratio IC50
[6] = Selectivity index, ratio of IC50 for rat L6 cells to IC50 for chloroquine and pyrimethamine resistant Plasmodium falciparum K1; type: toxicity; settings: read-out: Ratio IC50
Plasmodium falciparum [7] = assay: Antiplasmodial activity against chloroquine and pyrimethamine resistant Plasmodium falciparum K1 strain; type: functional, organism-based
HCT-116 = assay: Cytotoxicity against human HCT-116 cells assessed as inhibition of cell growth at 50 uM after 72 hrs by XTT assay relative to control; type: functional
U-251 = assay: Cytotoxicity against human U-251 cells assessed as inhibition of cell growth at 50 uM after 72 hrs by XTT assay relative to control; type: functional

| Compound | IC50 (Plasmodium falciparum [4]) [nM] | IC50 [1] [nM] | zone of inhibition at 10000 µg/mL (Escherichia coli) [mm] | zone of inhibition at 10000 µg/mL (Pseudomonas aeruginosa) [mm] | zone of inhibition at 10000 µg/mL (Staphylococcus aureus) [mm] | zone of inhibition at 10000 µg/mL [2] [mm] | selectivity ratio [3] | IC50 (L6; read-out: IC50) [nM] | zone of inhibition at 10000 µg/mL (Candida albicans) [mm] | selectivity ratio [5] | selectivity ratio [6] | IC50 (Plasmodium falciparum [7]) [nM] | inhibition at 50 µM (HCT-116) [%] | inhibition at 50 µM (U-251) [%] | IC50 (L6) [nM] |
| --- | --- | --- | --- | --- | --- | --- | --- | --- | --- | --- | --- | --- | --- | --- | --- |
| C[C@@H]1CC[C@H]2[C@@H](C)C(=O)O[C@@H]3O[C@@]4(C)CC[C@@H]1[C@]32OO4 [ARTEMISININ] | – | – | – | – | – | – | – | – | – | – | 132000 | 3.4 | – | – | – |
| Nc1nc(N)nc(Nc2ccc([As]3SCC(CO)S3)cc2)n1 (stereo unspecified) [MELARSOPROL] | – | – | – | – | – | – | 2000 | – | – | – | – | – | – | – | – |
| CC1(C)S[C@@H]2[C@H](NC(=O)[C@H](N)c3ccccc3)C(=O)N2[C@H]1C(=O)O [AMPICILLIN] | – | – | 15 | 0 | – | 45 | – | – | 0 | – | – | – | – | – | – |
| CC1(C)C(Cc2c(Cl)cccc2Cl)C(=[N+]2CCCC2)C=CN1Cc1c(Cl)cccc1Cl (racemic) | 38 | 24 | 14 | 6 | 23 | 34 | 37.9 | 910 | 25 | 23.9 | – | – | 100 | 100 | – |
| O=C(O)c1cn(C2CC2)c2cc(N3CCNCC3)c(F)cc2c1=O [CIPROFLOXACIN] | – | – | – | 0 | 14 | – | – | – | 0 | – | – | – | – | – | – |
| CCN(CC)CCCC(C)Nc1ccnc2cc(Cl)ccc12 (stereo unspecified) [CHLOROQUINE] | – | – | – | – | – | – | – | 117000 | – | – | – | – | – | – | – |
| COc1cc([C@@H]2c3cc4c(cc3[C@H](O)[C@H]3COC(=O)[C@H]23)OCO4)cc(OC)c1OC [PODOFILOX] | – | – | – | – | – | – | – | – | – | – | – | – | – | – | 12 |

More lines, main results first:

| IC50 (Plasmodium falciparum [4]) [nM] | Compound | IC50 [1] [nM] | zone of inhibition at 10000 µg/mL (Escherichia coli) [mm] | zone of inhibition at 10000 µg/mL (Pseudomonas aeruginosa) [mm] | zone of inhibition at 10000 µg/mL (Staphylococcus aureus) [mm] | zone of inhibition at 10000 µg/mL [2] [mm] | selectivity ratio [3] | IC50 (L6; read-out: IC50) [nM] | zone of inhibition at 10000 µg/mL (Candida albicans) [mm] | selectivity ratio [5] | selectivity ratio [6] | IC50 (Plasmodium falciparum [7]) [nM] | inhibition at 50 µM (HCT-116) [%] | inhibition at 50 µM (U-251) [%] | IC50 (L6) [nM] |
| --- | --- | --- | --- | --- | --- | --- | --- | --- | --- | --- | --- | --- | --- | --- | --- |
| 30 | CC1(C)C(Cc2ccccc2)C(=[N+]2CCCC2)C=CN1Cc1ccc(Cl)cc1 (racemic) | 120 | 13 | 0 | 22 | 29 | 316 | 37900 | 20 | 1260 | – | – | – | – | – |
| 7.7 | CC1(C)C(Cc2ccc(Br)cc2)C(=[N+]2CCCC2)C=CN1Cc1ccccc1 (racemic) | 180 | 11 | 0 | 22 | 25 | 192 | 34500 | 13 | 4480 | – | – | – | – | – |
| 26 | CC1(C)C(Cc2ccc(C(F)(F)F)cc2)C(=[N+]2CCCC2)C=CN1Cc1ccccc1 (racemic) | 320 | 11 | 0 | 22 | 24 | 268 | 85900 | 15 | 3300 | – | – | – | – | – |
| 89 | CC1(C)C(Cc2ccccc2)C(=[N+]2CCCC2)C=CN1Cc1ccc([N+](=O)[O-])cc1 (racemic) | 1030 | 7 | 0 | 12 | 14 | 200 | 206000 | 0 | 2320 | – | – | – | – | – |
| 39 | CC(C)c1ccc(CC2C(=[N+]3CCCC3)C=CN(Cc3ccccc3)C2(C)C)cc1 (racemic) | 42 | 10 | 6 | 25 | 29 | 59.8 | 2510 | 21 | 64.4 | – | – | 100 | 100 | – |
